{
  "source": "paper PMC11758220",
  "about": "“Identification of a Privileged Scaffold for Inhibition of Sterol Transport Proteins through the Synthesis and Ring Distortion of Diverse, Pseudo-Natural Products” (ACS Central Science, 2025)",
  "target": "T1, ORP2 (Homo sapiens, UniProt Q9H1P3)",
  "T1 construct": "ORP2(49-480); host or cells: E. coli BL21(DE3)",
  "T1 sequence (Q9H1P3 49-480)": "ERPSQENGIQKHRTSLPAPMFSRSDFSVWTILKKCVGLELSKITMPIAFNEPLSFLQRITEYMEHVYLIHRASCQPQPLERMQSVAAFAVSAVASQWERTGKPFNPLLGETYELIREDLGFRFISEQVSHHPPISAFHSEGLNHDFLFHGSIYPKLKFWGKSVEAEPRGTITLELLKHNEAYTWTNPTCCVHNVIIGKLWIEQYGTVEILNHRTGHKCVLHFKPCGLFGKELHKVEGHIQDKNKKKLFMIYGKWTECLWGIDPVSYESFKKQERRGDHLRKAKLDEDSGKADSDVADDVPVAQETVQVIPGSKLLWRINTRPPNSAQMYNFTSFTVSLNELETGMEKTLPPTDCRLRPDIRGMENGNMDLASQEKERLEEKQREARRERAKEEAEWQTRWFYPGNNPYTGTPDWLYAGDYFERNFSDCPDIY",
  "test": "Effect on intrinsic protein fluorescence, ORP2",
  "details": "protein 1 µM, excitation 280 nm",
  "description": "Effect of spirooxepinoindoles on intrinsic protein fluorescence\nFigure S12: Spirooxepinoindoles 21a and 15f affect intrinsic protein fluorescence in dose-dependent fashion:\nRespective proteins (1 µM) were incubated with the compounds at different doses. Proteins were excited at 280 ± 10 nm and fluorescence spectra were measured from 315 ± 20 nm to 600 ± 20 nm with a step size of 2 nm. A) STARD1 and 21a. B) ORP1 and 21a. C) ORP2 and 21a. D) ORP2 and 15f.\n(1 picture or pasted object on this page, not shown here)\nSuperdex 75 pg (Cytiva) using an ÄKTA Explorer (Cytiva) in buffer containing 10 mM Tris -HCl, pH 8, 150 mM NaCl, 5 % glycerol and 2 mM DTT.\nFluorescence intensity and polarisation\nFluorescence intensity and polarisation (FP) experiments were performed in a buffer containing 20 mM HEPES pH 7.5, 300 mM NaCl, 0.01 %v/v Tween-20, 0.5% glycerol and 2 mM DTT in a final volume of 30 µl in black, flat-bottom, non-binding 384-well plates (Corning). All compounds were dispensed using the LabCyte Echo 550 Liquid handler. […] For competition experiments, 20 nM 22-NBD-cholesterol or 80 nM 25-NBD-cholesterol was mixed with protein and incubated with desired concentrations of screening compounds (Table S4) The fluorescence polarisation signal was measured using a Spark Cyto multimode microplate reader (Tecan) with filters set at 485 ± 20 nm for excitation and at 535 ± 20 nm for emission. […]",
  "data": [
    {"smiles": "COc1ccc2c(c1)[C@@]13CC[C@@H]4C[C@@H](CC[C@@]41C)OC3=N2", "note": "[Compound 15f]", "values": [
      {"measurement": "Quenching of intrinsic fluorescence of ORP2", "result": "quenches the ORP2 protein fluorescence in a dose-dependent manner"}
    ]},
    {"smiles": "C[C@]12CC[C@@H]3C[C@H]1CC[C@@]21C(=Nc2ccc(-c4ccccc4)cc21)O3", "note": "[Compound 21a]", "values": [
      {"measurement": "Quenching of intrinsic fluorescence of ORP2", "result": "dose-dependently quenches"}
    ]}
  ]
}
